Data from patent US20240182449A1, “CRYSTALLINE FORMS OF AN MK2 INHIBITOR” (XinThera, Inc., priority 2022, published 2024).
≈ marks a conversion by molar mass, not a printed value. Where “and” joins values, the source holds several entries; their conditions need not be identical. Equal entries are not always repeated. Entries after “also recorded” stand apart in the source; their conditions may differ.

Assays:
[1] = Mechanical stability (manual grinding, XRPD); type: physicochemical
Protocol: Appropriate amount of Form X was manually ground by pestle and mortar for about 2 minutes and 5 minutes, and then analyzed by XRPD.

[2] = Slurry competition experiments (thermodynamic stability relationship); type: physicochemical; details: RT, also in pure water
Protocol: Slurry competition experiments were carried out between anhydrous and hydrates, to establish stability relationships. Appropriate amount of Form I was suspended in different solvents for pre-saturation at RT. Then the filtrate was added into equal amount of different forms, and the mixture was kept stirring at RT for certain time before XRPD tests.

[3] = pH solubility profile; type: physicochemical
Protocol: Different pH buffers (pH 1.0, 3.0, 5.0, 6.8 and 9.0) were prepared by method in Table 20. Then 10 mg of Form X was added into 2 mL of different buffers (pH=1.0, 3.0, 5.0, 6.8 and 9.0) to make suspensions. The suspensions were kept shaking with a speed of 1000 rpm at 25° C. for 4 and 24 hours. At each point, the suspensions were centrifuged, and the supernatant was inspected by HPLC/pH, and the wet cakes were analyzed by XRPD. Duplicate samples were prepared.

[4] = Solubility estimation at RT by visual observation in selected solvent systems
Protocol: The solubility of compound 1 Form I and Form X was estimated at RT by visual observation in selected solvent systems. Approximately 5 mg solids were weighed into 8 mL glass vial, and then solvent was added stepwise until solids were dissolved completely or a total of solvent volume reached 5 mL.

[5] = Solubility in bio-relevant media (SGF, FaSSIF, FeSSIF) and water; type: physicochemical; details: for Solubility: 37° C.
Protocol: The solubility of Form X was measured in bio-relevant media (SGF, FaSSIF and FeSSIF) and water at 37° C. with 800 rpm for up to 24 hours. About 15 mg of Form X was weighed into sample vials and then 3 mL of three bio-relevant media and water were added to make suspensions, respectively. At 0.5, 2 and 24 hours, about 1 mL of each suspension was filtered, the filtrates were analyzed by HPLC and pH, and the filter cakes were analyzed by XRPD. Duplicate samples were prepared. […] A little higher solubility in FeSSIF was possibly due to the effect of bile salt.

[6] = Slurry conversion of Form I and Form X in solvents (XRPD result); type: physicochemical; details: for XRPD Result-Day 3: slurry at 80° C.
Protocol: Appropriate amount of Form I was added into different solvents to make suspensions, which were kept stirring at RT and 50° C. for 3 and 7 days, and at 80° C. for 3 days. Solid samples were collected by centrifugation and analyzed by XRPD. Forms I-IV, VII and VIII were obtained by slurry experiments of Form I.
Appropriate amount of Form X was added into different solvents to make suspensions, which were kept stirring at RT and 50° C. for 3 and 7 days, and at 80° C. for 3 days. Solid samples were collected by centrifugation and analyzed by XRPD.

[7] = Hygroscopicity by DVS; type: physicochemical
Protocol: DVS was performed on Form X, to evaluate its hygroscopicity and physical stability under different humidity.
Moisture sorption/desorption data were collected on a DVS instrument. Appropriate amount of sample was placed into a tared sample chamber and automatically weighed. The sample was analyzed with the setting parameters in the table below.

[8] = Solid-state stability (HPLC purity and XRPD); type: physicochemical; details: for solid-state stability (form change, purity): 7 days
Protocol: Solid-state stability of Form X was conducted at 60° C. (capped) and 40° C./75% RH (open) for 7 days. The stability sample was dissolved in diluent to prepare solution at ˜1 mg/mL for HPLC purity analysis. Solid samples were analyzed by XRPD to check the crystal form.

[9] = slurry at 50° C., Acetone/water (1/3)
[10] = slurry at 50° C., MeOH/Water (1/4)
[11] = slurry at RT, Acetone/water (1/3)

## [2H]C([2H])(Oc1cc(C)n(-c2c(C)cnc(-n3ccc(C(C)(C)O)n3)c2F)c(=O)c1Cl)c1ncc(F)cc1F [Form X]
[1]; manual grinding
  Crystallinity after manual grinding: with slight crystallinity decrease after
[1]; manually ground about 2 and 5 minutes
  crystal form after grinding: remained unchanged with slight crystallinity decrease
[2]
  thermodynamic stability in slurry competition of anhydrous forms and hydrates: thermodynamically more stable even in pure water at room temperature; also recorded: thermodynamically stable even in pure water
[3]; 4/24 h, all pH buffers
  XRPD of wet cake after pH solubility test: Unchanged
[3]; XRPD of wet cake
  crystal form after pH solubility test: remained unchanged
[3]; pH 1.0, 25° C., 4 h
  Solubility (1T/2T, mg/mL): 0.074 mg/mL (≈ 142 µM)
[3]; pH 1.0, 25° C., 24 h
  Solubility (1T/2T, mg/mL): 0.075 mg/mL (≈ 144 µM)
[3]; pH 1.0-9.0 buffers, 25° C.
  pH-dependence of solubility: no pH-dependence
[3]; pH 3.0 buffer, 25° C., 4 h
  Solubility (1T/2T, mg/mL): 0.060 mg/mL (≈ 115 µM)
[3]; pH 3.0 buffer, 25° C., 24 h
  Solubility (1T/2T, mg/mL): 0.073 mg/mL (≈ 140 µM)
[3]; pH 5.0 buffer, 25° C., 4 h
  Solubility (1T/2T, mg/mL): 0.061 mg/mL (≈ 117 µM)
[3]; pH 5.0 buffer, 25° C., 24 h
  Solubility (1T/2T, mg/mL): 0.060 mg/mL (≈ 115 µM)
[3]; pH 6.8 buffer, 25° C., 4 h
  Solubility (1T/2T, mg/mL): 0.060 mg/mL (≈ 115 µM)
[3]; pH 6.8 buffer, 25° C., 24 h
  Solubility (1T/2T, mg/mL): 0.060 mg/mL (≈ 115 µM)
[3]; pH 9.0 buffer, 25° C., 4 h
  Solubility (1T/2T, mg/mL): 0.060 mg/mL (≈ 115 µM)
[3]; pH 9.0 buffer, 25° C., 24 h
  Solubility (1T/2T, mg/mL): 0.062 mg/mL (≈ 119 µM)
[4]
  estimated solubility compared with Form I: decreased solubility in some solvents
[5]; 0.5/2/24 h, all media (SGF, FaSSIF, FeSSIF, water)
  XRPD of filter cake after solubility test: ^a Form X remained unchanged during solubility test in all media
[5]; FaSSIF, 0.5 h
  Solubility: 0.069 mg/mL (≈ 132 µM)
[5]; FaSSIF, 2 h
  Solubility: 0.070 mg/mL (≈ 134 µM)
[5]; FaSSIF, 24 h
  Solubility: 0.074 mg/mL (≈ 142 µM)
[5]; FeSSIF, 0.5 h
  Solubility: 0.097 mg/mL (≈ 186 µM)
[5]; FeSSIF, 2 h
  Solubility: 0.097 mg/mL (≈ 186 µM)
[5]; FeSSIF, 24 h
  Solubility: 0.124 mg/mL (≈ 238 µM)
[5]; SGF, 0.5 h
  Solubility: 0.074 mg/mL (≈ 142 µM)
[5]; SGF, 2 h
  Solubility: 0.070 mg/mL (≈ 134 µM)
[5]; SGF, 24 h
  Solubility: 0.066 mg/mL (≈ 126 µM)
[5]; Water, 0.5 h
  Solubility: 0.074 mg/mL (≈ 142 µM)
[5]; Water, 2 h
  Solubility: 0.074 mg/mL (≈ 142 µM)
[5]; Water, 24 h
  Solubility: 0.070 mg/mL (≈ 134 µM)
[5]; all media, XRPD of filter cake
  crystal form after solubility test: remained unchanged
[6]; [9]
  XRPD Result Day 3: Form X
  XRPD Result Day 7: Form X
[6]; slurry at 50° C., IPA
  XRPD Result Day 3: Form X
  XRPD Result Day 7: Form X
[6]; slurry at 50° C., IPE
  XRPD Result Day 3: Form X
  XRPD Result Day 7: Form X
[6]; slurry at 50° C., MTBE
  XRPD Result Day 3: Form X
  XRPD Result Day 7: Form III
[6]; [10]
  XRPD Result Day 3: Form X
  XRPD Result Day 7: Form X
[6]; slurry at 50° C., Toluene
  XRPD Result Day 3: Form X
  XRPD Result Day 7: Form X
[6]; slurry at 50° C., Water
  XRPD Result Day 3: Form X
  XRPD Result Day 7: Form X
[6]; CYH
  XRPD Result-Day 3: Form X
[6]; Heptane
  XRPD Result-Day 3: Form X
[6]; IPA/Water (1/2)
  XRPD Result-Day 3: Clear
[6]; IPA/Water (1/3)
  XRPD Result-Day 3: Form X
[6]; IPAc/Heptane (1/2)
  XRPD Result-Day 3: Form X
[6]; MeCYH
  XRPD Result-Day 3: Form X
[6]; Water
  XRPD Result-Day 3: Form X
[6]; [11]
  XRPD Result Day 3: Form X
  XRPD Result Day 7: Form X
[6]; slurry at RT, EtOH
  XRPD Result Day 3: Clear
  XRPD Result Day 7: Clear
[6]; slurry at RT, IPA
  XRPD Result Day 3: Form X
  XRPD Result Day 7: Form X
[6]; slurry at RT, IPAc
  XRPD Result Day 3: Form X
  XRPD Result Day 7: Form X
[6]; slurry at RT, IPE
  XRPD Result Day 3: Form X
  XRPD Result Day 7: Form X
[6]; slurry at RT, MIBK
  XRPD Result Day 3: Form X
  XRPD Result Day 7: Form X
[6]; slurry at RT, MTBE
  XRPD Result Day 3: Form III
  XRPD Result Day 7: Form III
[6]; slurry at RT, MeOH/water (1/4)
  XRPD Result Day 3: Form X
  XRPD Result Day 7: Form X
[6]; slurry at RT, Toluene
  XRPD Result Day 3: Form X
  XRPD Result Day 7: Form X
[6]; slurry at RT, Water
  XRPD Result Day 3: Form X
  XRPD Result Day 7: Form X
[7]
  XRPD after DVS: No change
[7]; DVS
  hygroscopicity: non-hygroscopic
[7]; DVS, 80% RH
  water uptake: 0.11%
[7]; DVS, 90% RH
  water uptake: 0.16%
[7]; after DVS test
  crystal form after DVS test: remained unchanged
[7]; at 80% RH
  DVS Wt. Gain %: 0.11%
[7]; at 90% RH
  DVS Wt. Gain %: 0.16%
[7]; classification in words
  Hygroscopicity (DVS): non-hygroscopic
[8]; 40° C./75% RH (open), 1 week
  Stability (physical): Physically stable at 40° C./75% RH (open)
  XRPD Result: Form X
[8]; 40° C./75% RH (open), 1 week, duplicate samples
  Purity (area %): 99.94 area % and 99.93 area %
[8]; 40° C./75% RH (open)
  solid-state stability (form change, purity): physically and chemically stable; also recorded: No form change or purity decrease
[8]; 60° C. (capped), 1 week
  XRPD Result: Form X
[8]; 60° C. (capped), 1 week, duplicate samples
  Purity (area %): 99.93 area % and 99.94 area %
[8]; 60° C. (capped)
  solid-state stability (form change, purity): physically and chemically stable; also recorded: No form change or purity decrease
[8]; 60° C., 1 week
  Stability (physical): Physically stable at 40° C./75% RH (open)
[8]; Initial
  Purity (area %): 99.94 area %
  XRPD Result: Form X
